Values quoted from earlier work, collected in patent publication US9498464B2, “Treatment of arterial wall by combination of RAAS inhibitor and HMG-CoA reductase inhibitor” (ARTSKIN d.o.o., priority 2011, dated 2016).

System: arterial stiffness
Settings: 12 weeks, 80 mg then 160 mg/day, patients with type 2 diabetes and hypertension

CCCCC(=O)N(Cc1ccc(-c2ccccc2-c2nnn[nH]2)cc1)[C@H](C(=O)O)C(C)C [valsartan]
arterial stiffness (pulse wave analysis): improves arterial stiffness
